Experimental data: ChEMBL document CHEMBL1146154, “Inhibitors of Plasmepsin II-potential antimalarial agents” (Bioorg Med Chem Lett, 2006)

Columns and labels:
Plasmepsin II = Plasmepsin II (Plasmodium falciparum, UniProt P46925); test: Inhibition of PM2 by FRET assay
Plasmodium falciparum = test: Antimalarial activity against Plasmodium falciparum infected human RBC; type: functional, organism-based

Chain of Plasmepsin II (P46925 whole entry): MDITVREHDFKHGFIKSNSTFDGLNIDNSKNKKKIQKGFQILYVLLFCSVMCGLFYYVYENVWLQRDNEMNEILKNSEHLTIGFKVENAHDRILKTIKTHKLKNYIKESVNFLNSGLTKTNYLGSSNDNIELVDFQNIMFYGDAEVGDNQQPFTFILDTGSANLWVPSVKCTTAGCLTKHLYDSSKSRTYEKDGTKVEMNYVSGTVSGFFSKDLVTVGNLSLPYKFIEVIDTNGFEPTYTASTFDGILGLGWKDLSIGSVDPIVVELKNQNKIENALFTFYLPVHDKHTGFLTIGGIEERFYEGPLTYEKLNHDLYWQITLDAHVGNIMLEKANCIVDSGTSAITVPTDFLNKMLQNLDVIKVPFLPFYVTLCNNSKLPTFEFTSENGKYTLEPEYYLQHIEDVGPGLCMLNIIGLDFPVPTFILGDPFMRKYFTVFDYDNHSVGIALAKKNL

Structure (SMILES)	IC50 (Plasmepsin II) [nM]	IC50 (Plasmodium falciparum) [nM]
CCCCCc1ccc(C(=O)N(CCN(CCCC)CCCC)Cc2ccc(-c3cccnc3)nc2)cc1	587	458
CCCCCc1ccc(C(=O)N(CCN(CCCC)CCCC)Cc2ccc(N3CCSCC3)cc2)cc1	188	1760
CCCCCc1ccc(C(=O)N(CCN(CCCC)CCCC)Cc2ccc(-c3ccccc3)cn2)cc1	2350	693
CCCCCc1ccc(C(=O)N(CCN(CCCC)CCCC)Cc2ccc(N3CCCCC3)cc2)cc1	369	628
CCCCCc1ccc(C(=O)N(CCN(CCCC)CCCC)Cc2ccc(-c3ccncc3)cn2)cc1	4550	630
CCCCCc1ccc(C(=O)N(CCN(CCCC)CCCC)Cc2ccc(-c3cccnc3)cc2)cc1	374	273
CCCCCc1ccc(C(=O)N(CCN(CCCC)CCCC)Cc2ccc(NC(=O)C3CCNCC3)cc2)cc1	464	550
CCCCCc1ccc(C(=O)N(CCN(CCCC)CCCC)Cc2ccc(NC(=O)C3CCCNC3)cc2)cc1 (centres undefined)	202	376
CCCCCc1ccc(C(=O)N(CCN(CCCC)CCCC)Cc2ccc(NC(=O)c3cnccn3)cc2)cc1	243	605
CCCCCc1ccc(C(=O)N(CCN(CCCC)CCCC)Cc2ccc(-c3ccncc3)nc2)cc1	642	457
CCCCCc1ccc(C(=O)N(CCN(CCCC)CCCC)Cc2ccc(-c3cncnc3)cc2)cc1	531	2230
CCCCCc1ccc(C(=O)N(CCN(CCCC)CCCC)Cc2ccc(NC(=O)c3ccnc(OC)c3)cc2)cc1	154	623
CCCCCc1ccc(C(=O)N(CCN(CCCC)CCCC)Cc2ccc(-c3ccccn3)cc2)cc1		1730
CCCCCc1ccc(C(=O)N(CCN(CCCC)CCCC)Cc2ccc(-c3cncnc3)nc2)cc1	2230	560
CCCCCc1ccc(C(=O)N(CCN(CCCC)CCCC)Cc2ccc(N(C)c3ccncc3)cc2)cc1	3010	453
CCCCCc1ccc(C(=O)N(CCN(CCCC)CCCC)Cc2ccc(N(CC)CC)cc2)cc1	1490	550
CCCCCc1ccc(C(=O)N(CCN(CCCC)CCCC)Cc2ccc(Nc3ccncc3)cc2)cc1	1820	207
CCCCCc1ccc(C(=O)N(CCN(CCCC)CCCC)Cc2ccc(-c3cccnc3)cn2)cc1	5270	465
CCCCCc1ccc(C(=O)N(CCN(CCCC)CCCC)Cc2ccc(-c3ccccc3)nc2)cc1	589	609
CCCCCc1ccc(C(=O)N(CCN(CCCC)CCCC)Cc2ccc(N3CCN(C)CC3)cc2)cc1	2550	431
CCCCCc1ccc(C(=O)N(CCN(CCCC)CCCC)Cc2ccc(-c3ccccn3)nc2)cc1	736	411
CCCCCc1ccc(C(=O)N(CCN(CCCC)CCCC)Cc2ccc(-c3cncnc3)cn2)cc1	8530	639
CCCCCc1ccc(C(=O)N(CCN(CCCC)CCCC)Cc2ccc(-n3cccc3)cc2)cc1	240	825

Second part, the molecule after the results:

IC50 (Plasmepsin II) [nM]	IC50 (Plasmodium falciparum) [nM]	Structure (SMILES)
670	739	CCCCCc1ccc(C(=O)N(CCN(CCCC)CCCC)Cc2ccc(-n3ccc4ccccc43)cc2)cc1
101	1200	CCCCCc1ccc(C(=O)N(CCN(CCCC)CCCC)Cc2ccc(-c3ccc4c(c3)OCO4)cc2)cc1
1500		CCCCCc1ccc(C(=O)N(CCN(C(C)C)C(C)C)Cc2ccc(-c3ccc4c(c3)OCO4)cc2)cc1
224	539	CCCCCc1ccc(C(=O)N(CCN(CCCC)CCCC)Cc2ccc(Nc3ccccc3)cc2)cc1
200	1280	CCCCCc1ccc(C(=O)N(CCN(CCCC)CCCC)Cc2ccc(N3CCN(c4ccccc4)CC3)cc2)cc1
334		CCCCCc1ccc(C(=O)N(CCN(CCO)Cc2ccccc2)Cc2ccc(-c3ccc4c(c3)OCO4)cc2)cc1
463	7150	CCCCCc1ccc(C(=O)N(CCN(CCCC)CCCC)Cc2ccc(-c3ccc(CC(=O)O)cc3)cc2)cc1
91	725	CCCCCc1ccc(C(=O)N(CCN(CCCC)CCCC)Cc2ccc(-c3ccc(CC(=O)N(C)Cc4ccccc4)cc3)cc2)cc1
77	859	CCCCCc1ccc(C(=O)N(CCN(CCCC)CCCC)Cc2ccc(-c3ccc(C(=O)N(C)C)cc3)cc2)cc1
1910	698	CCCCCc1ccc(C(=O)N(CCN(CCCC)CCCC)Cc2ccc(-c3ccc4c(c3)OCO4)cn2)cc1
531		CCCCCc1ccc(C(=O)N(CCN(CCC)CCC)Cc2ccc(-c3ccc4c(c3)OCO4)cc2)cc1
183	2470	CCCCCc1ccc(C(=O)N(CCN(CCCC)CCCC)Cc2ccc(-c3ccc(CC(=O)OC)cc3)cc2)cc1
511	3660	CCCCCc1ccc(C(=O)N(CCN(CCCC)CCCC)Cc2ccc(-c3ccc(OCCO)cc3)cc2)cc1
74	885	CCCCCc1ccc(C(=O)N(CCN(CCCC)CCCC)Cc2ccc(-c3ccc(CC(=O)N4CCOCC4)cc3)cc2)cc1
334		CCCCCc1ccc(C(=O)N(CCN2CCCCC2)Cc2ccc(-c3ccc4c(c3)OCO4)cc2)cc1
439		CCCCCc1ccc(C(=O)N(CCN(CC)CCN(CC)CC)Cc2ccc(-c3ccc4c(c3)OCO4)cc2)cc1

IC50 (Plasmepsin II) [nM]	IC50 (Plasmodium falciparum) [nM]	Structure (SMILES)
646	790	CCCCCc1ccc(C(=O)N(CCN(CCCC)CCCC)Cc2ccc(N3CCN(Cc4ccccc4)CC3)cc2)cc1
429	686	CCCCCc1ccc(C(=O)N(CCN(CCCC)CCCC)Cc2ccc(NCc3ccccc3)cc2)cc1
212	583	CCCCCc1ccc(C(=O)N(CCN(CCCC)CCCC)Cc2ccc(-c3ccncc3)cc2)cc1
46	340	CCCCCc1ccc(C(=O)N(CCN(CCCC)CCCC)Cc2ccc(-c3ccc(CC(=O)NCc4ccccc4)cc3)cc2)cc1
143	2440	CCCCCc1ccc(C(=O)N(CCN(CCCC)CCCC)Cc2ccc(-c3ccccc3)cc2)cc1
190		CCCCCc1ccc(C(=O)N(CCN2CCC(Cc3ccccc3)CC2)Cc2ccc(-c3ccc4c(c3)OCO4)cc2)cc1
72	566	CCCCCc1ccc(C(=O)N(CCN(CCCC)CCCC)Cc2ccc(-c3ccc(C(=O)NCc4ccccc4)cc3)cc2)cc1
574	617	CCCCCc1ccc(C(=O)N(CCN(CCCC)CCCC)Cc2ccc(N(C)c3ccccc3)cc2)cc1
437	677	CCCCCc1ccc(C(=O)N(CCN(CCCC)CCCC)Cc2ccc(-c3ccc4c(c3)OCO4)nc2)cc1
2900		CCCCCc1ccc(C(=O)N(CCN2CCOCC2)Cc2ccc(-c3ccc4c(c3)OCO4)cc2)cc1
56	751	CCCCCc1ccc(C(=O)N(CCN(CCCC)CCCC)Cc2ccc(-c3ccc(C(=O)N4CCSCC4)cc3)cc2)cc1
165		CCCCCc1ccc(C(=O)N(CCN2CCC(CCCc3ccccc3)CC2)Cc2ccc(-c3ccc4c(c3)OCO4)cc2)cc1
289	609	CCCCCc1ccc(C(=O)N(CCN(CCCC)CCCC)Cc2ccc(N(C)Cc3ccccc3)cc2)cc1
1520		CCCCCc1ccc(C(=O)N(CCN(CC)CC)Cc2ccc(-c3ccc4c(c3)OCO4)cc2)cc1
6	1.8	CCCCCc1ccc(C(=O)N(Cc2ccc(-c3ccc(CC(=O)OC)cc3)cc2)C2CCN(CCC(C)C)CC2)cc1
1700		CCCCCc1ccc(C(=O)N(CCCc2ccccc2)C2CCN(Cc3ccccc3)CC2)cc1
